Data taken from PubChem BioAssay (NCI).
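A five-concentration, 48-hour dose response in 96-well plates underlies each endpoint, interpolated linearly between surrounding concentrations. The concentration for 50% growth inhibition is given as GI50. TGI denotes the concentration required for complete inhibition of growth.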

Columns and labels:
Test in all cases: growth of human tumour cells (NCI), 48 h
CCRF-CEM leukemia = test system: CCRF-CEM leukemia
COLO 205 colon = test system: COLO 205 colon
LOX IMVI melanoma = test system: LOX IMVI melanoma
NCI-H522 lung = test system: NCI-H522 lung
PC-3 prostate = test system: PC-3 prostate
RXF 393 renal = test system: RXF 393 renal
SK-MEL-2 melanoma = test system: SK-MEL-2 melanoma
SNB-19 CNS = test system: SNB-19 CNS
SR leukemia = test system: SR leukemia
SW-620 colon = test system: SW-620 colon

Structure (SMILES)	GI50 (CCRF-CEM leukemia) [µM]	TGI (CCRF-CEM leukemia) [µM]	GI50 (COLO 205 colon) [µM]	TGI (COLO 205 colon) [µM]	GI50 (LOX IMVI melanoma) [µM]	TGI (LOX IMVI melanoma) [µM]	GI50 (NCI-H522 lung) [µM]	TGI (NCI-H522 lung) [µM]	GI50 (PC-3 prostate) [µM]	TGI (PC-3 prostate) [µM]	GI50 (RXF 393 renal) [µM]	TGI (RXF 393 renal) [µM]	GI50 (SK-MEL-2 melanoma) [µM]	TGI (SK-MEL-2 melanoma) [µM]	GI50 (SNB-19 CNS) [µM]	TGI (SNB-19 CNS) [µM]	GI50 (SR leukemia) [µM]	TGI (SR leukemia) [µM]	GI50 (SW-620 colon) [µM]	TGI (SW-620 colon) [µM]
Nc1nc(N)c(-c2ccc(Cl)c(Cl)c2)c(CP(Cl)(Cl)(Cl)Br)n1	8.13	> 100	10.4	> 100	2.72	> 100	21.2	> 100	5.31	> 100	18.1	> 100	17.9	48.7	31.9	> 100	10.2	> 100	4.2	> 100
CC(=O)/C=C/c1ccc(N(CCO)Cc2ccc(C(C)(C)C)cc2)cc1	49	208	29.3	129	28.3	134	84.8	237	32.2	128	65.5	208	96.7	233	116	241	39.1	169	119	259
CCSCCCC(=O)O	–	> 100	–	> 100	–	> 100	–	> 100	–	> 100	–	> 100	–	> 100	–	> 100	–	> 100	–	> 100
O=c1[nH]c(=O)n(C2OC(CO)C(O)C2O)cc1F (stereo not given)	0.0369	> 100	0.0447	18.7	0.016	7.18	0.349	30.6	–	> 100	4e-05	2.45	–	> 84.6	–	> 100	0.0274	–	0.0314	> 100
OCC1OC(n2cnc3c(NCc4ccccc4O)ncnc32)C(O)C1O (stereo not given)	0.274	33.6	0.524	> 24.4	0.0695	3.62	0.0939	1.54	0.523	> 50.1	4.62	> 100	0.328	1.83	1.39	> 100	0.413	> 29.3	0.291	> 33.9
Cc1ccc(NC2=CC(=O)C(=O)c3ccccc32)cc1	5.62	> 100	1.65	3.1	2.11	6.45	1.45	3.18	1.87	15.7	3.32	13.7	1.86	4.06	2.09	4.96	3.96	> 100	1.92	4.01
CC(C)(C)OC(=O)N1Cc2cc3ccccc3nc2C1CO (stereo not given)	> 100	> 100	> 100	> 100	> 100	> 100	> 100	> 100	> 100	> 100	> 100	> 100	> 100	> 100	> 100	> 100	> 100	> 100	> 100	> 100
C[C@@H](Oc1cc(-c2cnn(C3CCNCC3)c2)cnc1N)c1c(Cl)cc(F)cc1Cl	0.504	9.88	0.857	2.45	1.37	3.21	1.79	5.73	1.99	14.7	1.5	3.09	1.95	5.41	3.46	14.3	0.0497	1.52	0.893	8.13
Cc1ccc(C2C3Cc4ccccc4C3=NN2c2ccc(S(=O)(=O)NC(=O)Nc3ccccc3)cc2)cc1 (stereo not given)	17.8	46.6	18.6	53.3	13.5	27.9	10.6	28.7	13.5	26.3	16	38.5	14.2	31.5	25.4	> 100	2.51	16.1	13.1	26
COc1ccc(-c2nnc(Nc3nc(O)c(C4=c5cc(Br)ccc5=NC4=O)s3)o2)cc1	6.79	32.7	32	> 100	19.8	62	19.8	> 74.2	18.1	> 76.7	5.48	> 55.6	17.3	48.8	28.1	> 83.4	1.6	35.9	14.2	> 100
CC(=O)c1ccc(Oc2c3ccccc3nc3occc23)cc1	4.8	> 100	24.1	> 100	6.35	> 100	4.68	> 100	9.77	> 100	6.26	56.7	> 100	> 100	7.98	> 100	0.842	> 100	4.87	> 100
O=C(CC1Sc2ccccc2NC1=O)NNc1ccc(F)cc1 (stereo not given)	> 100	> 100	55.6	> 100	4.51	> 100	9.39	> 100	64.1	> 100	> 100	> 100	72.9	> 100	–	–	14.4	> 100	38.5	> 100
NS(=O)(=O)c1cc(C(=O)O)c(Cl)c([N+](=O)[O-])c1Cl	–	> 100	–	> 100	–	> 100	–	> 100	–	> 100	–	> 100	–	> 100	–	> 100	–	> 100	–	> 100
NCCCNc1nc2ccccc2c2c(=O)c3cc(F)cc(Cl)c3sc12	1.95	4.58	1.92	4.41	1.68	3.14	1.76	3.68	1.76	3.35	1.62	3.16	8.86	24	1.77	3.33	1.19	4.04	1.7	3.28
CCS(=O)(=O)N1CCN(c2ccc(Nc3ncc(C(N)=O)c(NC4CC4)n3)cc2)CC1	0.749	10.9	2.61	21.2	3.07	> 100	14.1	44.1	16.1	> 100	1.61	9.46	4.62	21.4	38	> 100	2.78	23.4	20.6	61.9
COC(=O)[C@H](CCCCNC(=O)OCc1ccccc1)NC(=O)[C@@H](NC(=O)Nc1cc(C(F)(F)F)cc(C(F)(F)F)c1)C(C)C	> 10	> 10	> 10	> 10	> 10	> 10	> 10	> 10	> 10	> 10	> 10	> 10	> 10	> 10	> 10	> 10	> 10	> 10	> 10	> 10
Nc1no[n+]([O-])c1-c1nnc2c(n1)-c1ccccc1C2=O	3.22	9.37	1.93	4.35	1.81	4.16	2.02	5.87	2.91	12.6	3.22	12.4	9.13	24.4	4.88	16.7	2.48	–	1.83	3.65
C1=C\CCCCN2CC[C@H]3[C@H](CCCC/C=C\CCCN4C[C@@H](CCCCC/1)C[C@@H]3C4)C2	3.64	> 22.6	2.25	5.75	4.3	14.8	12.6	28.5	14	36.6	2.72	8.17	10.4	26.3	16.4	30.5	1.85	4.93	6.96	19.4
O=C(c1ccc(Nc2nccc(NCCCCNc3ccnc4cc(Cl)ccc34)n2)cc1)N1CCCCC1	1.48	> 100	1.52	3.25	0.971	2.33	2.22	4.89	0.955	7.89	1.33	2.82	2.08	4.03	3.89	21.1	0.219	1.5	0.589	2.17
Cc1nn(-c2ccccc2)c2nc(C)n(-c3ccc(Br)cc3)c(=O)c12	0.411	> 100	0.549	18.4	0.51	> 100	0.326	18.6	0.475	> 100	0.286	0.972	0.654	> 100	0.547	> 100	0.439	> 100	0.353	> 100
CCCCNCCCCCNc1cc(OC)cc2cccnc12	28.1	74.2	17.2	33.8	34.8	> 100	17.5	33.8	15.2	34.7	12.3	27.9	19.6	37.5	13.8	31.5	28.6	> 100	19.2	39.4
O=C(Nc1cc2cc([N+](=O)[O-])ccc2oc1=O)c1cccs1	–	78.3	–	85.2	–	> 100	–	84.7	–	> 100	–	34.4	–	> 100	–	> 100	–	> 100	–	> 100
C=C1C(=O)O[C@H]2[C@H]1CC/C(COC(=O)N[C@H](Cc1c[nH]c3ccccc13)C(=O)OC)=C\CC[C@@]1(C)O[C@@H]21	1.78	6.69	1.81	3.76	1.36	2.85	1.52	3.22	6.49	20.5	1.28	2.66	7.21	23.8	8.75	22.6	2.58	10.5	1.78	4.17
CCN(CC)CCCC(C)Nc1ccnc(/C=C/c2ccc(Cl)cc2)c1 (stereo not given)	–	> 19.7	–	3.01	–	3.28	–	3.81	–	10.7	1.44	2.92	–	4.25	–	16.6	–	> 27.2	–	3.91
COc1cccc(-c2nn(-c3ccccc3)cc2-c2ccnc(NCCCNS(=O)(=O)c3ccc(C(F)(F)F)cc3)c2)c1	5.07	> 100	2.5	7.77	4.86	> 100	2.51	23	3.36	> 100	3.01	> 100	2.84	12.4	–	–	1.67	4.84	11.2	> 100
Cc1ccc(/C(=C/C=C(C#N)C#N)Sc2nc3ccccc3s2)cc1	0.465	3.02	3.84	16	–	–	7.36	32.9	2.25	6.52	3.78	13.8	4.95	27.1	14.8	34.1	> 100	> 100	2.42	5.73
